Laboratory results reported in patent US10570178B2, “Selective delivery molecules and methods of use” (Avelas Biosciences, Inc., priority 2011, dated 2020).
Numbered stars: 1 amine (or outer) side, 2 acyl side, 3 side chain; on linkers, the order of the positions; unused ones are H or OH. Square brackets hold non-standard residues; d marks the D form. Ends that are not written are not given here. Cys(Me) = S-methyl-cysteine, CSC[C@H](N[*:1])C(=O)[*:2]; Phe(4-Ac) = CC(=O)c1ccc(C[C@H](N)C(=O)O)cc1; AEA = NCCOCC(=O)O

Columns and labels:
[1] = target: T1, matrix metalloproteinase-2 (MMP-2) (Homo sapiens, UniProt P08253); assay: Enzyme dependent fluorescence enhancement and color change: cleavage of FRET SDM by MMP-2; format: biochemical; conditions: 1 μM SDM
T1 sequence (P08253 110-660): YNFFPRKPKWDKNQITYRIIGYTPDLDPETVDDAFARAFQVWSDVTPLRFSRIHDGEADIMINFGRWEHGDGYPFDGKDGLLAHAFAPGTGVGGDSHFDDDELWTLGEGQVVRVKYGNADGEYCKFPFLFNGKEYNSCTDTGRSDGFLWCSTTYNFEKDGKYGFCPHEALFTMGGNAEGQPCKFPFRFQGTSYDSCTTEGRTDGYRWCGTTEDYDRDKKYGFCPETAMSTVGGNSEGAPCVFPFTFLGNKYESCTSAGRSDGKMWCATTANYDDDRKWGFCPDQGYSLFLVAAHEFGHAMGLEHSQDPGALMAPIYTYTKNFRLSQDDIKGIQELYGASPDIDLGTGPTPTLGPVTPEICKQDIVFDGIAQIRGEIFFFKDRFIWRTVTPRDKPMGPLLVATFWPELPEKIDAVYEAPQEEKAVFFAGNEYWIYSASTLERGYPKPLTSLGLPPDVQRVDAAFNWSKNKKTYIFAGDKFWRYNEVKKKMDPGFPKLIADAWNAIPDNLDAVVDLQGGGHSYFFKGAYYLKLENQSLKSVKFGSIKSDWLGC
Procedure: FIG. 2 exemplifies ratiometric fluorescence changes of selective delivery molecules. In this figure, SDM-9 was cleaved with 1 nM MMP-2 enzyme. The increase of donor (left panel) and decrease in acceptor (right panel) fluorescence is indicative of decreased FRET after peptide cleavage.
Selective delivery molecule 9 was dissolved in TCNB buffer (50 mM Tris, pH 7.5, with 10 mM calcium chloride, 150 mM sodium chloride, and 0.05% BRIJ 35) at room temperature at 1 μM. Fluorescence spectra were recorded on F-2500 fluorescence spectrometer. The Cy5 fluorescence donor was excited using 625 nm light and the emission was scanned from 660 to 800 nm. Peptide cleavage was initiated with addition of matrix metalloproteinase-2 (MMP-2) at a final concentration of 1 nM. The cleavage reaction was complete within 2 hour and the fluorescence spectra indicated FRET disruption and a large 8-fold increase the Cy5 donor emission and 2-fold decrease in the Cy7 emission. The actual intrinsic fluorescence decrease of Cy7 is larger however it is masked by the Cy5 long wavelength shoulder.

HT-1080 xenograft model = assay: In vivo imaging assay for tumor contrast; set-up: species or system mouse
Procedure: HT-1080 xenograft model was generated as described in Example 14 and used to evaluate the ability of molecules to provide in vivo tumor fluorescence contrast compared to surrounding tissue. Fluorescent conjugates were tested in HT-1080 tumor-bearing mice once the tumors had reached 100-200 mm^3 in size (typically 1-2 weeks post-tumor cells implantation). Conscious HT-1080 tumor-bearing mice were restrained using a rotating tail injector (Cat. # RTI; Braintree Scientific, MA, USA) and dosed intravenously (tail vein) with the test compound at between 0.1 and 5 nanomoles per mouse in 100 uL saline solution. In preparation for imaging, mice were lightly anesthetized with a mixture of ketamine/xylazine (Cat. # K-113; Sigma, Aldrich, Mo., USA) given intraperitoneally (1 μL/gram body weight) to minimize movement.
Serial whole-body imaging (tumor included) was done using a whole-animal fluorescent visualization imaging system or Olympus stereo fluorescent microscope. The mice were positioned on their backs and imaging was performed from the top to image the ventral side of the animal. […] Contrast was calculated using the following equation: Contrast=(Fluorescence intensity of tumor−Fluorescence intensity of contralateral chest tissue)/Intensity of contralateral chest tissue).
Contrast greater than 0.4 in the whole animal is easily detected by eye in the whole animal image and is good contrast. […]

[2] = system: Murine 4T1 tumor model, metastatic cervical lymph nodes; assay: In vivo detection of cancer metastases to lymph node, emission ratio contrast; set-up: species or system mouse; conditions: metastatic vs non-metastatic lymph nodes, peritumoral administration
[3] = system: HT-1080 tumor homogenates; assay: Fluorogenic response from tumor homogenates (gel electrophoresis); format: biochemical, mouse
Procedure: FIG. 4 exemplifies fluorescence enhancement of selective delivery molecule SDM-10 upon cleavage by tumor homogenates. Selective delivery molecule 10 (SDM-10) was cleaved with HT-1080 tumor homogenates. 1 nM MMP-9 or 10 uL tumor tissue homogenates (TH2 and TH3) were mixed with 1 uM […] in 100 uL buffer for 24 h at 37° C. GM6001 is a general broad spectrum inhibitor of MMPs. […] Uncleaved SDM-10 is nonfluorescent due to efficient quenching (second column from left).
HT1080 cells (Cat. # CCL-121; American Type Culture Collection, Va., USA) were grown under exponential growth conditions in humidified atmosphere of 5% CO2 in air at 37° C. until reaching 80-100% confluence before harvesting for mouse implantation. Each nude mouse was hand restrained and injected with 2×10^6 HT-1080 cells into the mammary fat pad using a 25-G needle. HT-1080 tumors were harvested when they had reached 100-200 mm^3 in size (typically 1-2 weeks post-tumor cells implantation).
HT-1080 tumors were homogenized using ultrasonic disruption. 1 nM MMP-9 or 10 μl, tumor tissue homogenates (TH2 and TH3) were mixed with 1 μM SDM-10 in 100 μL buffer for 24 h at 37° C. Selective delivery molecule 6 was used as a fluorescent control of similar size to intact SDM-10. The samples were loaded on a polyacrylamide gel and separated using electrophoresis. […] GM6001 is a general broad spectrum inhibitor of MMPs.

MMP-9 = MMP-9 (Homo sapiens, UniProt P14780); assay: Enzyme dependent fluorescence enhancement: cleavage of quenched SDM by MMP-9; format: biochemical; conditions: 1 μM SDM
Procedure: FIG. 3 exemplifies fluorescence enhancement of selective delivery molecules after protease cleavage. SDM-10 was cleaved with 1 nM MMP-9 enzyme in buffered saline. The Cy5 fluorescence increases >100 fold after peptide cleavage because the quencher dyes is no longer intramolecularly attached to Cy5 and it can no longer efficiently quench Cy5.
Selective delivery molecule 10 was dissolved in TCNB buffer (pH 7.5) at room temperature at 1 μM. Fluorescence spectra were recorded on F-2500 fluorescence spectrometer. Excitation of the Cy5 fluorescence donor was excited at 625 nm and the emission was measured at 669 nm. Peptide cleavage was initiated with addition of MMP-9 at a final concentration of 1 nM. The cleavage reaction was complete within 2 hour and the fluorescence was enhanced >100-fold upon protease cleavage, FIG. 3.

[4] = 1 nM MMP-2, TCNB buffer pH 7.5, excitation 625 nm

MMP-9, sequence (P14780 94-707): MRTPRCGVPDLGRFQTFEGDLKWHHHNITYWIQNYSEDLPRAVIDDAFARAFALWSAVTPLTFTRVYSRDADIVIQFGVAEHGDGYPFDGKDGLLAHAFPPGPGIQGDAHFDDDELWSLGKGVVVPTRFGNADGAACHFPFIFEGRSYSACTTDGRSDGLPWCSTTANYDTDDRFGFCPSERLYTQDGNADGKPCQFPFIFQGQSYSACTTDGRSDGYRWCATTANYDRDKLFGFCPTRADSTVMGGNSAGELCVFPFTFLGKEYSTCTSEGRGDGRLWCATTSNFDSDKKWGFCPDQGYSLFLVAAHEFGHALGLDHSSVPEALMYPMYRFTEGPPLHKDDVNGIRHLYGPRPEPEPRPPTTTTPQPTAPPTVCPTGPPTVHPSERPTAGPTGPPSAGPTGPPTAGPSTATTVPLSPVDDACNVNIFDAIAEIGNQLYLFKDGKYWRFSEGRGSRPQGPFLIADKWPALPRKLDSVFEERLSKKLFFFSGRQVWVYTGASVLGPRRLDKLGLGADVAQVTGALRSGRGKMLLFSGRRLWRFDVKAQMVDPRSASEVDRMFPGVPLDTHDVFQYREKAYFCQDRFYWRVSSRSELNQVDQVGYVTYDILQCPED

“SDM-9: prepared analogously to SDM-25 from peptide P-3; Cy5 donor and Cy7 FRET acceptor ([dE][dE][dE][dE][dE][Phe(4-Ac)][AEA]PLG[Cys(Me)]AG[dR][dR][dR][dR][dR][dR][dR][dR][dC]-NH2; not fully specified (some residues, N-terminus))” was tested, and the “decrease in Cy7 emission after cleavage” value [1, 4] was 2 fold, the “increase in Cy5 donor emission after cleavage” value [1, 4] was 8 fold and the “time to complete cleavage reaction” value ([1]; 1 nM MMP-2, room temperature) was no more than 2 h. The “Time to maximum contrast” value (HT-1080 xenograft model; HT-1080 xenograft, IV dosing) was “Fast (4 < fast < 12)”, the “Maximum Contrast” value (HT-1080 xenograft model; tumor vs contralateral chest tissue fluorescence, IV 0.1-5 nanomoles per mouse, imaged 1-24 hours after injection) was “High (≥0.9 = high)” and the “Peritumor Maximum Contrast” value [2] was “Low (Low <20%)”.
For CNC(=O)[C@H](Cc1c[nH]c2ccccc12)NC(=O)[C@@H](CC(=O)NO)CC(C)C [GM6001, reference compound], the “effect on tumor homogenate cleavage of SDM-10” value ([3]; MMP inhibitor added to HT-1080 homogenate with SDM-10) was “inhibits cleavage”.
“SDM-10: prepared analogously to SDM-25 from peptide P-3; Cy5 fluorophore with dye quencher ([dE][dE][dE][dE][dE][Phe(4-Ac)][AEA]PLG[Cys(Me)]AG[dR][dR][dR][dR][dR][dR][dR][dR][dC]-NH2; numbers in words are those of the source; also: Cy5 fluorophore, quencher dye and mPEG carrier attached, sites not given here)” was tested, and the “cleavage by HT-1080 tumor homogenates” value ([3]; 1 μM SDM, 10 μL homogenate in 100 μL buffer, 24 h, 37° C.) was “cleaved and becomes highly fluorescent”, the “fluorescence of intact, uncleaved form on gel” value ([3]; polyacrylamide gel) was “essentially non-fluorescent” and the “Cy5 fluorescence enhancement upon protease cleavage” value (MMP-9; 1 nM MMP-9, excitation 625 nm, emission 669 nm) was greater than 100 fold. The “time to complete cleavage reaction” value (MMP-9; 1 nM MMP-9, room temperature) was no more than 2 h.
